From ChEMBL document CHEMBL5126532, “Synthetic approaches and structural diversity of triazolylbutanols derived from voriconazole in the antifungal drug development” (Eur J Med Chem, 2022)
Values after ≈ are worked out from the molar mass of the structure shown.

Assays:
Aspergillus = experiment: Antifungal activity against Aspergillus; format: functional
Cryptococcus neoformans [1] = experiment: Antifungal activity against Cryptococcus neoformans; format: functional; details: Cryptococcus neoformans; read-out: MIC
Candida = experiment: Antifungal activity against Candida spp.; format: functional
Aspergillus fumigatus [2] = experiment: Antifungal activity against Aspergillus fumigatus assessed as inhibition of fungal growth incubated for 20 hrs; format: functional
Candida parapsilosis = experiment: Antifungal activity against Candida parapsilosis; format: functional; details: Lodderomyces parapsilosis
Candida albicans [3] = experiment: Antifungal activity against Candida albicans; format: functional
Candida tropicalis = experiment: Antifungal activity against Candida tropicalis; format: functional
Nakaseomyces glabratus = experiment: Antifungal activity against Candida glabrata; format: functional
Pichia kudriavzevii = experiment: Antifungal activity against Candida krusei; format: functional
Candida albicans [4] = experiment: Antifungal activity against Candida albicans assessed as inhibition of fungal growth incubated for 20 hrs; format: functional
Candida albicans [5] = experiment: In vivo antifungal activity against Candida albicans infected in CDF1 mouse treated po or iv immediately after infection measured on day 7; format: functional; details: 168 h, time 7 day
Candida albicans [6] = experiment: In vivo antifungal activity against Candida albicans infected in CDF1 mouse treated po or iv 2 hrs after infection twice daily for 2 days measured on day 10; format: functional; details: 240 h, time 10 day
Candida albicans [7] = experiment: Antifungal activity against Candida albicans TIMM1756 assessed as inhibition of fungal growth incubated for 20 hrs; format: functional
Candida albicans [8] = experiment: Antifungal activity against Candida albicans TIMM1850 assessed as inhibition of fungal growth incubated for 20 hrs; format: functional
Cryptococcus neoformans [9] = experiment: Antifungal activity against Cryptococcus neoformans TIMM1740 assessed as inhibition of fungal growth incubated for 68 hrs; format: functional
Cryptococcus neoformans [10] = experiment: Antifungal activity against Cryptococcus neoformans TIMM1855 assessed as inhibition of fungal growth incubated for 68 hrs; format: functional
Aspergillus fumigatus [11] = experiment: Antifungal activity against Aspergillus fumigatus TIMM1728 assessed as inhibition of fungal growth incubated for 20 hrs; format: functional
Aspergillus fumigatus [12] = experiment: Antifungal activity against Aspergillus fumigatus IFO6344 assessed as inhibition of fungal growth incubated for 20 hrs; format: functional
Candida albicans [13] = experiment: In vivo antifungal activity against Candida albicans infected in CDF1 mouse treated po 4 hrs after injection twice daily for 2 days measured on day 10; format: functional; details: 48 h, time 2 day
Aspergillus fumigatus [14] = experiment: In vivo antifungal activity against Aspergillus fumigatus infected in CDF1 mouse treated po 4 hrs after injection twice daily for 2 days measured on day 10; format: functional; details: 48 h, time 2 day
[15] = Metabolic stability in ICR mouse plasma assessed as half life by measuring TAK-456 metabolite formation preincubated for 5 mins followed by compound addition measured at 5 to 120 mins by HPLC analysis; format: ADME, cell-free; details: time 5-120 min
[16] = Metabolic stability in Sprague-Dawley rat plasma assessed as half life by measuring TAK-456 metabolite formation preincubated for 5 mins followed by compound addition measured at 5 to 120 mins by HPLC analysis; format: ADME, cell-free; details: time 5-120 min
[17] = Metabolic stability in human plasma assessed as half life by measuring TAK-456 metabolite formation preinubated for 5 mins followed by compound addition measured at 5 to 120 mins by HPLC analysis; format: ADME, cell-free; details: time 5-120 min
Aspergillus fumigatus [18] = experiment: Antifungal activity against Aspergillus fumigatus in 96-well microplate method; format: functional
Aspergillus fumigatus [19] = experiment: Antifungal activity against Aspergillus fumigatus; format: functional
Nannizzia gypsea [20] = experiment: Antifungal activity against Microsporum gypseum; format: functional
Nannizzia gypsea [21] = experiment: Potency index, ratio of MIC80 for FCZ to ratio of MIC80 for test compound against antifungal activity in Microsporum gypseum; format: functional
Candida albicans [22] = experiment: Antifungal activity against FCZ-resistant Candida albicans 100; format: functional
Candida albicans [23] = experiment: Antifungal activity against FCZ-resistant Candida albicans 103; format: functional
Aspergillus sp. = experiment: Antifungal activity against Aspergillus sp; format: functional; details: Aspergillus sp.; read-out: MIC

Q: Which MIC (Aspergillus) does the source give for C[C@@H](C[C@H]1CO[C@H](/C=C/C=C/c2ccc(C(F)(F)F)cc2)OC1)[C@](O)(Cn1cncn1)c1ccc(F)cc1F here?
A: Its MIC is at most 0.5 µg/mL.

Q: With C[C@@H](N1CCn2nc(-c3ccc(C#N)nc3)nc2C1)[C@](O)(Cn1cncn1)c1ccc(F)cc1F as the compound, how does the MIC (Cryptococcus neoformans [1]) read?
A: Its MIC is 0.0078 µg/mL (≈ 0.0163 µM).

Q: What about the MIC (Candida) of the same compound?
A: Its MIC is 0.0078 µg/mL (≈ 0.0163 µM).

Q: And the MIC (Aspergillus)?
A: The MIC was 1 µg/mL (≈ 2.09 µM).

Q: With C[C@@H](N1Cc2cc(Br)sc2C1=O)[C@](O)(Cn1cncn1)c1ccc(F)cc1F as the compound, how does the MIC (Aspergillus fumigatus [2]) read?
A: Its MIC is 0.25 µg/mL (≈ 0.533 µM).

Q: With C[C@H](n1nnnc1CCN1CCN(c2cccc(C(F)(F)F)c2)CC1)[C@](O)(Cn1cncn1)c1ccc(F)cc1F as the compound, how does the MIC (Candida parapsilosis) read?
A: The MIC was 0.25 µg/mL (≈ 0.433 µM).

Q: What about the MIC (Candida albicans [3]) of the same compound?
A: Its MIC is 0.12 µg/mL (≈ 0.208 µM).

Q: What about the MIC (Candida tropicalis) of the same compound?
A: The MIC was 0.25 µg/mL (≈ 0.433 µM).

Q: What about the MIC (Nakaseomyces glabratus) of the same compound?
A: The MIC was 0.5 µg/mL (≈ 0.866 µM).

Q: And the MIC (Pichia kudriavzevii)?
A: Its MIC is 0.5 µg/mL (≈ 0.866 µM).

Q: For C[C@@H](N1CCN(c2ccc(-n3cnnn3)cc2)C1=O)[C@](O)(Cn1cncn1)c1ccc(F)cc1F, which MIC (Candida albicans [4]) is on record?
A: Its MIC is 0.16 µg/mL (≈ 0.332 µM).

Q: What about the ED50 (Candida albicans [5]) of the same compound?
A: Its ED50 is 0.77 mg/kg.

Q: What about the ED50 (Candida albicans [6]) of the same compound?
A: The ED50 was 3.56 mg/kg.

Q: And the MIC (Candida albicans [7])?
A: The MIC was at most 0.001 µg/mL.

Q: What about the MIC (Candida albicans [8]) of the same compound?
A: The MIC was at most 0.001 µg/mL.

Q: And the MIC (Cryptococcus neoformans [9])?
A: The MIC was 0.016 µg/mL (≈ 0.0332 µM).

Q: And the MIC (Cryptococcus neoformans [10])?
A: Its MIC is 0.016 µg/mL (≈ 0.0332 µM).

Q: And the MIC (Aspergillus fumigatus [11])?
A: The MIC was 0.25 µg/mL (≈ 0.519 µM).

Q: What about the MIC (Aspergillus fumigatus [12]) of the same compound?
A: Its MIC is 0.25 µg/mL (≈ 0.519 µM).

Q: What about the ED50 (Candida albicans [13]) of the same compound?
A: The ED50 was 0.18 mg/kg.

Q: And the ED50 (Aspergillus fumigatus [14])?
A: The ED50 was 4 mg/kg.

Q: Which results are given for CC(=O)OC[n+]1cnn(C[C@](O)(c2ccc(F)cc2F)[C@@H](C)N2CCN(c3ccc(-n4cnnn4)cc3)C2=O)c1.[Cl-]?
A: MIC (Candida albicans [4]): 0.016 µg/mL; ED50 (Candida albicans [5]): 0.62 mg/kg; ED50 (Candida albicans [6]): 4.49 mg/kg; t1/2 [15]: 5 min; t1/2 [16]: 5 min; t1/2 [17]: 5 min

Q: For C[C@@H](N1Cc2sc(-c3ccc(C#N)cn3)nc2C1=O)[C@](O)(Cn1cncn1)c1ccc(F)cc1F, which MIC80 (Aspergillus fumigatus [18]) is on record?
A: The MIC80 was 4 µg/mL (≈ 8.11 µM).

Q: With C[C@@H](OCc1cc(-c2ccc(F)cc2)no1)[C@](O)(Cn1cncn1)c1ccc(F)cc1F as the compound, how does the MIC80 (Candida parapsilosis) read?
A: The MIC80 was 0.0313 µg/mL (≈ 0.0704 µM).

Q: And the MIC80 (Aspergillus fumigatus [19])?
A: The MIC80 was 4 µg/mL (≈ 9 µM).

Q: What about the MIC80 (Candida albicans [3]) of the same compound?
A: Its MIC80 is 0.0313 µg/mL (≈ 0.0704 µM).

Q: And the MIC80 (Nannizzia gypsea [20])?
A: The MIC80 was 0.5 µg/mL (≈ 1.13 µM).

Q: And the Ratio (Nannizzia gypsea [21])?
A: Its Ratio is 64.

Q: What about the MIC80 (Candida albicans [22]) of the same compound?
A: Its MIC80 is 8 µg/mL (≈ 18 µM).

Q: What about the MIC80 (Candida albicans [23]) of the same compound?
A: The MIC80 was 8 µg/mL (≈ 18 µM).

Q: Which MIC (Cryptococcus neoformans [1]) does the source give for C[C@@H](N1Cc2sc(Br)nc2C1=O)[C@](O)(Cn1cncn1)c1ccc(F)cc1F here?
A: The MIC was 0.125 µg/mL (≈ 0.266 µM).

Q: And the MIC (Candida)?
A: Its MIC is 0.0625 µg/mL (≈ 0.133 µM).

Q: And the MIC80 (Aspergillus fumigatus [18])?
A: Its MIC80 is 4 µg/mL (≈ 8.51 µM).

Q: And the MIC (Aspergillus sp.)?
A: The MIC was 16 µg/mL (≈ 34 µM).

Q: For C[C@@H](N1Cc2sc(-c3cncnc3)nc2C1=O)[C@](O)(Cn1cncn1)c1ccc(F)cc1F, which MIC80 (Aspergillus fumigatus [18]) is on record?
A: The MIC80 was 4 µg/mL (≈ 8.52 µM).
